Assay results from the NIST ThermoML archive (doi:10.1016/j.jct.2011.08.016).

Experiment: xn = mol fraction of the nth substance listed
Details: Liquid, Vibrating tube method

CCCCCCCCCC [decane] + CCCCCCC
mass density [kg/m3]
Details	x2 = 0.0531	x2 = 0.2594	x2 = 0.5219	x2 = 0.777	x2 = 0.952
343.09 K, 1000 kPa	690.42	–	670.9	656.56	–
343.09 K, 2000 kPa	691.49	–	672.01	657.76	–
343.09 K, 3000 kPa	692.55	–	673.08	658.95	–
343.09 K, 4000 kPa	693.59	–	674.15	660.13	–
343.09 K, 5000 kPa	694.62	–	675.24	661.28	–
343.09 K, 6000 kPa	695.63	–	676.3	662.42	–
343.09 K, 7000 kPa	696.62	–	677.39	663.56	–
343.09 K, 8000 kPa	697.6	–	678.46	664.71	–
343.09 K, 9000 kPa	698.57	–	679.53	665.84	–
343.09 K, 10000 kPa	699.52	–	680.57	666.95	–
343.09 K, 11000 kPa	700.46	–	681.55	668.04	–
343.09 K, 12000 kPa	701.38	–	682.56	669.13	–
343.09 K, 13000 kPa	702.3	–	683.57	670.2	–
343.09 K, 14000 kPa	703.21	–	684.56	671.24	–
343.09 K, 15000 kPa	704.09	–	685.54	672.27	–
343.09 K, 16000 kPa	704.98	–	686.5	673.29	–
343.09 K, 17000 kPa	705.84	–	687.45	674.28	–
343.09 K, 18000 kPa	706.7	–	688.39	675.26	–
343.09 K, 19000 kPa	707.54	–	689.28	676.22	–
343.09 K, 20000 kPa	708.37	–	690.16	677.14	–
343.09 K, 21000 kPa	709.2	–	691.02	678.06	–
343.09 K, 22000 kPa	710	–	691.87	678.95	–
343.09 K, 23000 kPa	710.8	–	692.69	679.82	–
343.09 K, 24000 kPa	711.58	–	693.49	680.67	–
343.09 K, 25000 kPa	712.36	–	694.29	681.49	–
343.11 K, 1000 kPa	–	682.79	–	–	645.16
343.11 K, 2000 kPa	–	683.83	–	–	646.47
343.11 K, 3000 kPa	–	684.89	–	–	647.73
343.11 K, 4000 kPa	–	685.87	–	–	649
343.11 K, 5000 kPa	–	686.9	–	–	650.27
343.11 K, 6000 kPa	–	687.93	–	–	651.49
343.11 K, 7000 kPa	–	688.92	–	–	652.71
343.11 K, 8000 kPa	–	689.92	–	–	653.91
343.11 K, 9000 kPa	–	690.94	–	–	655.08
